“And” between values parts separate entries of the source, which are not always exact repeats. Identical values can stand only once. Counter-ions that a name gives are not always drawn. Like-named read-outs stand apart in the source and are kept apart here.
Assays:
[1] = system: Male ICR mice; assay: Mice tail suspension test; format: in vivo; settings: for effect on length of time that the tail-suspended mice stopped moving vs blank control: two successive weeks; for Duration without Move within 6 min: mice tail suspension, gavage 14 days, n = 10, x ± s
From the text: The following method is used for testing the antidepression effect of the compound of the present application. ICR mice or SD rats, gavaged for two successive weeks, were subjected to mice swimming test, mice tail suspension test and rats swimming test. See below for details of the tests and results.
The animals, medicaments, calculation of dosages to the mice, preparation of drug solution and apparatus are the same as those in the mice swimming test.
The medicaments were correspondingly administered by gavage, once a day, to the animals in the groups for 14 successive days, with the amount of 0.2 ml per 10 g of body weight. The mice were subjected to tail suspension one hour later after the last oral administration. The suspension continued for 6 min.
The data was given as “average±standard deviation” (x±s). One-way analysis of variance (ANOVA) was used for data difference statistics. Differences among the groups were determined by P<0.05.

[2] = Pharmacokinetic test in rats, intravenous injection; format: in vivo, SD rats; settings: for Concentrations in Plasma of Rats after Intravenous Injection / concentration at 0.05 h / concentration at 0.133 h / concentration at 4 h / concentration at 6 h / concentration at 9 h / concentration at 12 h / concentration at 24 h / concentration at 0.25 h / concentration at 0.5 h / concentration at 1 h / concentration at 2 h / concentration at 3 h: 2 mg/kg iv; for concentration at 0.05 h / concentration at 0.133 h / concentration at 4 h / concentration at 6 h / concentration at 9 h / concentration at 12 h / concentration at 24 h / concentration at 0.25 h / concentration at 0.5 h / concentration at 1 h / concentration at 2 h / concentration at 3 h: intravenous; for concentration at 0.25 h / concentration at 0.5 h / concentration at 1 h / concentration at 2 h / concentration at 3 h: Sprague-Dawley
Description: The preferred compound of the present disclosure was assessed in rats for its pharmacokinetic profile.
SD rats, male and female, weighing 150 to 250 g
Mobile phase: 10 mM ammonium formate aqueous solution:methanol=15:85
The ionization source was electrospray ionization source. The detection mode was positive mode. Multiple reaction monitoring (MRM) was used as the scanning mode. The ion reaction for the quantitative analysis was the following: m/z was 305.2\150.0 for XX, and 256.1\167.1 for diphenhydramine (the internal standard).
Four male SD rats were taken. The dosage was calculated as 5 mL/kg body weight and 2 mg/kg. XX or YY was dissolved in DMSO (3% of a total volume) and castor oil (3% of the total volume) was added to the solution, followed by agitating with a vortex mixer. Subsequently, saline was added to the mixture to the total volume to afford the intravenous injection for the rats. The injections were intravenously administered to four male SD rats. Blood from the rats' orbits was collected 3 min, 8 min, 15 min, 30 min, 1 hr, 2 hr, 3 hr, 4 hr, 6 hr, 9 hr, 12 hr and 24 hr later after the injection, respectively.
After the blood collection, the tubes were immediately gently turned upside down at least five times to ensure sufficient mixing, and placed on ice. Heparin was added for anticoagulation. The samples were centrifuged at 8000 rpm for 5 min to separate serum from erythrocyte. The serum was transferred with a pipettor to 2 mL polypropylene (PP) tubes, which were marked with the name of the compound and the time points, and stored in a refrigerator at −40° C. before LC-MS analysis. Samples with high concentrations were diluted with rat blank plasma.
2.5 μL of Meth-H2O and 5 μL of the internal standard solution (20 ng/mL, IS) were added to 50 μL of the plasma. Subsequently, 150 μL of methanol was added to the mixture to precipitate protein and the samples were then centrifuged at 13000 rpm for 5 min. The upper organic phase was taken out, filtrated with a 0.22 μM microporous membrane, and 2 μL of the sample was injected for the LC-MS analysis.

[3] = rats, iv 2 mg/kg, individual rats, 2 mg/kg

Concentrations in Plasma of Rats after Intravenous Injection ([2]; 0.133 h, individual rats): 89.0 ng/mL and 85.9 ng/mL and 86.8 ng/mL | Concentrations in Plasma of Rats after Intravenous Injection ([2]; 0.25 h, individual rats): 78.8 ng/mL and 77.3 ng/mL and 77.1 ng/mL | Concentrations in Plasma of Rats after Intravenous Injection ([2]; 0.5 h, individual rats): 76.9 ng/mL and 71.3 ng/mL and 75.8 ng/mL | Concentrations in Plasma of Rats after Intravenous Injection ([2]; 1 h, individual rats): 73.3 ng/mL and 68.6 ng/mL and 65.6 ng/mL | Concentrations in Plasma of Rats after Intravenous Injection ([2]; 2 h, individual rats): 69.5 ng/mL and 68.1 ng/mL and 54.4 ng/mL | Concentrations in Plasma of Rats after Intravenous Injection ([2]; 3 h, individual rats): 53.4 ng/mL and 49.8 ng/mL and 38.2 ng/mL | Concentrations in Plasma of Rats after Intravenous Injection ([2]; 4 h, individual rats): 38.5 ng/mL and 27.6 ng/mL and 25.1 ng/mL | Concentrations in Plasma of Rats after Intravenous Injection ([2]; 6 h, individual rats): 28.4 ng/mL and 25.8 ng/mL and 24.5 ng/mL | Concentrations in Plasma of Rats after Intravenous Injection ([2]; 9 h, individual rats): 16.1 ng/mL and 18.6 ng/mL and 14.1 ng/mL | Concentrations in Plasma of Rats after Intravenous Injection ([2]; 12 h, individual rats): 7.86 ng/mL and 7.50 ng/mL and 7.18 ng/mL | Concentrations in Plasma of Rats after Intravenous Injection ([2]; 24 h, individual rats): 2.57 ng/mL and 2.89 ng/mL and 3.68 ng/mL | concentration at 0.05 h ([2]; male, SD, rat, plasma, 2 mg/kg, 0.05 h, mean, read-out: Concentrations in Plasma of Rats after Intravenous Injection, Mean ± SD): 126 ± 5.68 ng/mL | concentration at 0.05 h ([2]; male, SD, rat, plasma, 2 mg/kg, 0.05 h after administration, individual rats, read-out: Concentrations in Plasma of Rats after Intravenous Injection): 134 ng/mL | concentration at 0.133 h ([2]; male, SD, rat, plasma, 2 mg/kg, 0.133 h, individual rats, read-out: Concentrations in Plasma of Rats after Intravenous Injection): 86.5 ng/mL | concentration at 0.133 h ([2]; male, SD, rat, plasma, 2 mg/kg, 0.133 h, mean, read-out: Concentrations in Plasma of Rats after Intravenous Injection, Mean ± SD): 87.1 ± 1.35 ng/mL | concentration at 4 h ([2]; male, SD, rat, plasma, 2 mg/kg, 4 h, individual rats, read-out: Concentrations in Plasma of Rats after Intravenous Injection): 27.2 ng/mL | concentration at 4 h ([2]; male, SD, rat, plasma, 2 mg/kg, 4 h, mean, read-out: Concentrations in Plasma of Rats after Intravenous Injection, Mean ± SD): 29.6 ± 6.03 ng/mL | concentration at 6 h ([2]; male, SD, rat, plasma, 2 mg/kg, 6 h, individual rats, read-out: Concentrations in Plasma of Rats after Intravenous Injection): 25.8 ng/mL | concentration at 6 h ([2]; male, SD, rat, plasma, 2 mg/kg, 6 h, mean, read-out: Concentrations in Plasma of Rats after Intravenous Injection, Mean ± SD): 26.1 ± 1.64 ng/mL | concentration at 9 h ([2]; male, SD, rat, plasma, 2 mg/kg, 9 h, individual rats, read-out: Concentrations in Plasma of Rats after Intravenous Injection): 14.9 ng/mL | concentration at 9 h ([2]; male, SD, rat, plasma, 2 mg/kg, 9 h, mean, read-out: Concentrations in Plasma of Rats after Intravenous Injection, Mean ± SD): 15.9 ± 1.96 ng/mL | concentration at 12 h ([2]; male, SD, rat, plasma, 2 mg/kg, 12 h, individual rats, read-out: Concentrations in Plasma of Rats after Intravenous Injection): 8.44 ng/mL | concentration at 12 h ([2]; male, SD, rat, plasma, 2 mg/kg, 12 h, mean, read-out: Concentrations in Plasma of Rats after Intravenous Injection, Mean ± SD): 7.75 ± 0.54 ng/mL | concentration at 24 h ([2]; male, SD, rat, plasma, 2 mg/kg, 24 h, individual rats, read-out: Concentrations in Plasma of Rats after Intravenous Injection): 3.38 ng/mL | concentration at 24 h ([2]; male, SD, rat, plasma, 2 mg/kg, 24 h, mean, read-out: Concentrations in Plasma of Rats after Intravenous Injection, Mean ± SD): 3.13 ± 0.5 ng/mL | AUC(0-inf) ([2]; male, SD, rat, plasma, iv, 2 mg/kg, rats, iv 2 mg/kg, XX n = 4, YY n = 3, read-out: AUC0-∞, Mean ± SD): 482 ± 23.6 ng·h/mL | Cmax ([2]; male, SD, rat, plasma, iv, 2 mg/kg, rats, iv 2 mg/kg, XX n = 4, YY n = 3, read-out: Cmax, Mean ± SD): 126 ± 5.68 ng/mL | MRT inf ([2]; male, SD, rat, plasma, iv, 2 mg/kg, rats, iv 2 mg/kg, XX n = 4, YY n = 3, read-out: MRT0-∞, Mean ± SD): 6.87 ± 0.84 h | Vd ([2]; male, SD, rat, plasma, iv, 2 mg/kg, rats, iv 2 mg/kg, XX n = 4, YY n = 3, read-out: Vz, Mean ± SD): 32.9 ± 9.76 L/kg | half-life ([2]; male, SD, rat, plasma, iv, 2 mg/kg, rats, iv 2 mg/kg, XX n = 4, YY n = 3, read-out: t1/2, Mean ± SD (converted)): 5.47 ± 1.49 h | AUC(0-t) ([2]; male, SD, rat, plasma, iv, 2 mg/kg, rats, iv 2 mg/kg, individual rats 1-4 (Table 9), read-out: AUC0-1): 462 ng·h/mL | AUC(0-inf) ([2]; male, SD, rat, plasma, iv, 2 mg/kg, rats, iv 2 mg/kg, individual rats, read-out: AUC0-∞): 467 ng·h/mL | Cmax ([2]; male, SD, rat, plasma, iv, 2 mg/kg, rats, iv 2 mg/kg, individual rats, read-out: Cmax): 134 ng/mL | MRT inf ([2]; male, SD, rat, plasma, iv, 2 mg/kg, rats, iv 2 mg/kg, individual rats, read-out: MRT0-∞): 6.59 h | Vd ([2]; male, SD, rat, plasma, iv, 2 mg/kg, rats, iv 2 mg/kg, individual rats, read-out: Vz): 23 L/kg | half-life ([2]; male, SD, rat, plasma, iv, 2 mg/kg, rats, iv 2 mg/kg, individual rats, read-out: t1/2 (converted)): 3.72 h | AUC(0-t) ([2]; male, SD, rat, plasma, iv, 2 mg/kg, rats, iv 2 mg/kg, n = 4 (Table 9), read-out: AUC0-1, Mean ± SD): 461 ± 29.5 ng·h/mL | concentration at 0.25 h ([2]; male, rat, plasma, 2 mg/kg, 0.25 h, individual rats, read-out: Concentrations in Plasma of Rats after Intravenous Injection): 78.1 ng/mL | concentration at 0.25 h ([2]; male, rat, plasma, 2 mg/kg, 0.25 h, mean, read-out: Concentrations in Plasma of Rats after Intravenous Injection, Mean ± SD): 77.8 ± 0.78 ng/mL | concentration at 0.5 h ([2]; male, rat, plasma, 2 mg/kg, 0.5 h, individual rats, read-out: Concentrations in Plasma of Rats after Intravenous Injection): 76.6 ng/mL | concentration at 0.5 h ([2]; male, rat, plasma, 2 mg/kg, 0.5 h, mean, read-out: Concentrations in Plasma of Rats after Intravenous Injection, Mean ± SD): 75.2 ± 2.61 ng/mL | concentration at 1 h ([2]; male, rat, plasma, 2 mg/kg, 1 h, individual rats, read-out: Concentrations in Plasma of Rats after Intravenous Injection): 72.2 ng/mL | concentration at 1 h ([2]; male, rat, plasma, 2 mg/kg, 1 h, mean, read-out: Concentrations in Plasma of Rats after Intravenous Injection, Mean ± SD): 69.9 ± 3.51 ng/mL | concentration at 2 h ([2]; male, rat, plasma, 2 mg/kg, 2 h, individual rats, read-out: Concentrations in Plasma of Rats after Intravenous Injection): 60.7 ng/mL | concentration at 2 h ([2]; male, rat, plasma, 2 mg/kg, 2 h, mean, read-out: Concentrations in Plasma of Rats after Intravenous Injection, Mean ± SD): 63.2 ± 7.01 ng/mL | concentration at 3 h ([2]; male, rat, plasma, 2 mg/kg, 3 h, individual rats, read-out: Concentrations in Plasma of Rats after Intravenous Injection): 49.6 ng/mL | concentration at 3 h ([2]; male, rat, plasma, 2 mg/kg, 3 h, mean, read-out: Concentrations in Plasma of Rats after Intravenous Injection, Mean ± SD): 47.8 ± 6.6 ng/mL | CL, Mean ± SD ([2]; rats, iv 2 mg/kg, XX n = 4, YY n = 3): 4.16 ± 0.20 L/h/k | Cmax [2, 3]: 123.2 ng/mL and 127.2 ng/mL and 121.4 ng/mL | MRT0-∞ [2, 3]: 6.14 h and 6.67 h and 8.08 h | Vz [2, 3]: 29.0 L/kg and 33.4 L/kg and 46.0 L/kg | t1/2 [2, 3]: 5.15 h and 5.66 h and 7.33 h
SMILES: [2H]C([2H])([2H])c1ccc(Sc2ccccc2N2CCNCC2)c(C([2H])([2H])[2H])c1 [XX, 1-{2-[2,4-bis(trideuteriomethyl)phenylsulfanyl]phenyl}piperazine hydrobromic acid salt]
effect on length of time that the tail-suspended mice stopped moving vs blank control ([1]; 1.5 mg/kg gavage): showed a tendency to shorten | effect on length of time that the tail-suspended mice stopped moving vs blank control ([1]; 3 mg/kg gavage): markedly shortened | Duration without Move within 6 min ([1]; 1.5 mg/kg): 212.6 ± 54.9 s | Duration without Move within 6 min ([1]; 3 mg/kg): 152.9 ± 35.4 s | Concentrations in Plasma of Rats after Intravenous Injection ([2]; 0.05 h after administration, individual rats): 123.2 ng/mL and 127.2 ng/mL and 121.4 ng/mL | AUC0-1 ([2]; rats, iv 2 mg/kg, individual rats 1-4 (Table 9), 2 mg/kg): 492.9 ng·h/mL and 466.0 ng·h/mL and 421.5 ng·h/mL | AUC0-∞ [2, 3]: 512.0 ng·h/mL and 489.7 ng·h/mL and 459.8 ng·h/mL | CL [2, 3]: 42.8 L/h/k and 3.91 L/h/k and 4.09 L/h/k and 4.35 L/h/k

Reference: patent publication US9896423B2, “Deuterium substituted 1-[2-(2,4-dimethyl-phenylsulfanyl)-phenyl]piperazine compound or derivatives thereof, and pharmaceutical composition and use thereof” (Jiangsu Jibeier Pharmaceutical Co. Ltd., priority 2014, dated 2018)
